For test [1], the system named is SH-SY5Y. In words: Cytotoxicity against human SH-SY5Y cells assessed as cell viability at 10 uM after 48 hrs by MTT assay relative to control. As to conditions: for viability at 10 µM: Homo sapiens, SH-SY5Y, 48 h, read-out: Activity. In kind it is functional. For orientation: Tetrazolium assays rely on reduction of a dye to a coloured formazan, in cell work by metabolically active cells.

The subject of test [2] is SH-SY5Y. The test is described as follows: Cytotoxicity against human SH-SY5Y cells assessed as cell viability after 48 hrs by MTT assay. In kind it is functional, cell-based.
The target in test [3] is Histone deacetylase. The test is described as follows: Inhibition of HDAC in human SHSY5Y cells by fluorimetric cellular activity assay. In kind it is cell-based. The following applies: sh-sy5y.
For test [4], the system named is SH-SY5Y. The test is described as follows: Cell cycle arrest in human SH-SY5Y cells assessed as accumulation at G2/M phase at 3 uM after 16 hrs by flow cytometry. The test is classed as functional.
The target of test [5] is Histone deacetylase (Homo sapiens) (UniProt Q13547+O15379+Q9UBN7+Q92769+Q9UQL6+Q8WUI4+Q9BY41+Q96DB2+P56524+Q9UKV0+Q969S8). The following applies: SH-SY5Y, at 10 µM.
Description: Inhibition of HDAC in human SHSY5Y cells at 10 uM by fluorimetric cellular activity assay

These results are taken from ChEMBL document CHEMBL1138448, “Synthesis, biological evaluation, and molecular docking of Ugi products containing a zinc-chelating moiety as novel inhibitors of histone deacetylases” (J Med Chem, 2009).

A word on the IC50: it is the concentration that gives 50% inhibition.

Active and inactive are the calls of the source. No cut-off for these calls is given here.

Take `O=C(CCCCCCC(=O)N(Cc1ccccc1)C(Cc1ccccc1)C(=O)NCCc1ccccc1)NO` (stereo not given): the viability at 10 µM in test [1] came to 53.1%.

Turning to `CN(C(=O)CCCCCCC(=O)NO)C(Cc1ccccc1)C(=O)NCCc1ccccc1` (stereo not given), in test [1], the viability at 10 µM was found to be 94.4%.

Regarding `O=C(CCCCCC(=O)N(Cc1ccccc1)C(Cc1ccccc1)C(=O)NC1CCCCC1)NO` (stereo not given), the viability at 10 µM in test [1] was 27.4%. Also, the IC50 in test [2] is 2.5 µM; in test [3], 1.2 µM. Moreover, the Activity in test [4] amounted to 34.3%. Moreover, in test [5], the inhibition result was “Active”.

As for `Nc1ccccc1NC(=O)CCCCCC(=O)N(Cc1ccccc1)C(Cc1ccccc1)C(=O)NC1CCCCC1` (stereo not given), the viability at 10 µM in test [1] was 91.6%.

Turning to `O=C(CCCCCC(=O)N(CCc1ccccc1)C(Cc1ccccc1)C(=O)NCc1ccccc1)NO` (stereo not given), in test [1], the viability at 10 µM turned out to be 34.9%. Besides, the IC50 in test [2] amounted to 7.5 µM.

In the case of `O=C(CCCCCCC(=O)Nc1ccccc1)NO` [VORINOSTAT], the Activity in test [1] came to 33.8%; in test [4] it was 34%.

In the case of `O=C(CCCCCC(=O)N(Cc1ccccc1)C(Cc1ccccc1)C(=O)NCCc1ccccc1)NO` (stereo not given), in test [1], the viability at 10 µM was found to be 30.8%. In addition, in test [2], the 50% inhibitory concentration (IC50) was 7.6 µM.

On to `Nc1ccccc1NC(=O)CCCCCCC(=O)N(Cc1ccccc1)C(Cc1ccc(-c2ccccc2)cc1)C(=O)NCCc1ccccc1` (stereo not given), for which the viability at 10 µM in test [1] was 74%.

In the case of `CCCCCCCC(C(=O)NCCc1ccccc1)N(Cc1ccccc1)C(=O)CCCCCCC(=O)NO` (stereo not given), the viability at 10 µM in test [1] was found to be 53%.

For the compound `O=C(CCCCCC(=O)N(CCc1ccccc1)C(Cc1ccccc1)C(=O)NCCc1ccccc1)NO` (stereo not given), the viability at 10 µM in test [1] turned out to be 30.2%. The IC50 in test [2] is 2.9 µM.

As to `CCCCCCC(C(=O)NC1CCCCC1)N(CCc1ccccc1)C(=O)CCCCCC(=O)NO` (stereo not given), in test [1], the viability at 10 µM stood at 35%. Further, the IC50 in test [2] is 2.9 µM.

`O=C(CCCCCCC(=O)N(Cc1ccccc1)C(Cc1ccc(-c2ccccc2)cc1)C(=O)NCCc1ccccc1)NO` (stereo not given): in test [1], the viability at 10 µM was 22.2%. In addition, the IC50 in test [2] stood at 4.2 µM; in test [3], 4.4 µM. The Activity in test [4] is recorded as 11.3%. Besides, in test [5], the inhibition result is “Active”.
